This is an account of results in patent US20230115350A1 (Cedilla Therapeutics, Inc., priority 2021, published 2023).

The structures appear in SMILES notation. Some results are limits rather than exact numbers.

Assay [1] has as its target TEAD1 protein (YAP Binding Domain) (Homo sapiens, UniProt P28347). Kind of assay: TEAD1 lipid pocket compound displacement assay (TR-FRET, Cy5-probe). The note with it: 60 minutes incubation at room temperature; TR-FRET 665 nm/620 nm; read-out: CDA IC50. How it is done: Compound Displacement Assay.
A TEAD1 lipid pocket displacement assay was carried out according to the following protocol. Purified His-tagged TEAD1 protein (YAP Binding Domain) was pre-mixed with a Cy5-probe (Cy5-conjugated to a small molecule that binds in the TEAD1 lipid pocket) and Terbium-labeled anti-His antibody (Cisbio Cat 61HI2TLB). The binding of the Cy5-probe to anti-His-Tb/His-tag TEAD1 complex yielded a TR-FRET signal. […] After 60 minutes incubation at room temperature of compounds with the His-TEAD1/anti-His-Tb/Cy5-probe complex, the plate was read on a plate reader (BMG ClarioStar Cat 430-1300) using TR-FRET mode with wavelengths of 665 nm/620 nm. The potency of compounds as TEAD1 lipid pocket binders was determined by IC50 value generated using a non-linear 4 parameter curve fit.

Assay [2] concerns NCI-H226. Kind of assay: 72H TEAD Proliferation Assay (Cell Titer-Glo 2.0). The note with it: Homo sapiens, NCI-H226, 72 h, CTG 2.0, cell line not given. The class given is cell-based. How it is done:
The effect of TEAD inhibition on cell proliferation was assayed using Cell Titer Glo (CTG) 2.0 to measure response in mesothelioma cell lines NCI-H226 (ATCC, #CRL-5826) and NCI-H28 (ATCC, #CRL-5820).
The 72H TEAD Proliferation assay utilizes Cell Titer-Glo 2.0 (Promega, #G9243) to measure the proliferation of cells in the presence or absence of compound. Cell Titer-Glo 2.0 determines the amount of viable cells by quantifying ATP (an indication of metabolically active cells). It utilizes the conversion of Luciferin to Oxyluciferin and a luminescent signal with the use of ATP to report the quantity of viable cells in culture. Within cells that are continually growing, ATP is being synthesized to meet their metabolic demands, meanwhile the opposite is true for cells that are dying or slowing down their proliferation and either no longer using ATP or are using less, respectively. The NF2-deficient NCI-H226 has been genetically validated as a cell line that is sensitive to TEAD inhibition. The NF2-wild type NCI-H28 has been genetically validated as a cell line that is not sensitive to TEAD inhibition and grows independently of TEAD activity.
Compounds were screened against the responsive NCI-H226 cell line to assess the compounds' ability to inhibit TEAD and cell growth. Compounds were also screened against the non-responsive NCI-H28 cell line to ascertain whether the inhibition of cell growth was due to inhibition of the target TEAD or whether the inhibition was due to off-target cytotoxicity.
1) Assay ready plates (ARPs) were prepared by Echo acoustic liquid handler. For each compound, duplicate of 10-point half-log dilution series were dispensed in a 384-well microplate (Corning 3571).
5) NCI-H226 or NCI-H28 cells were harvested from culture in Assay Medium 1 and the multidrop Combi reagent dispenser was used to seed cells at 500 cells per 50 ul in each well of the ARPs and one Corning 3571 plate without compounds for Time 0 (TO) readout.
6) The TO plate was incubated for 2 hours at 37° C. with 5% CO2 to allow cells to settle, then the CTG Assay was performed.
7) All ARPs were incubated for 72 hours at 37° C. with 5% CO2, then the CTG Assay was performed for Time 72H (T72) readout.
8) CTG Assay: Bravo liquid handler (Agilent) was used to add 25 ul of CTG 2.0 to all columns of the plate except for Column 24, which was used to subtract out the background. After CTG addition, plates were placed on shaker at 800 RPM for 15 minutes at room temperature and kept in the dark. Luminescence was measured using EnVision multilabel plate reader with ultra-sensitive detection module.
9) Data Analysis: First background luminescence (no CTG wells) was subtracted from luminescence reading of all wells, then TO luminescence was subtracted from T72 luminescence. To compare anti-proliferative effect of compounds, GI50 was obtained by fitting dose response curves with nonlinear regression curve fit.

TEAD1 protein (YAP Binding Domain), sequence (P28347 209-426 limits assumed): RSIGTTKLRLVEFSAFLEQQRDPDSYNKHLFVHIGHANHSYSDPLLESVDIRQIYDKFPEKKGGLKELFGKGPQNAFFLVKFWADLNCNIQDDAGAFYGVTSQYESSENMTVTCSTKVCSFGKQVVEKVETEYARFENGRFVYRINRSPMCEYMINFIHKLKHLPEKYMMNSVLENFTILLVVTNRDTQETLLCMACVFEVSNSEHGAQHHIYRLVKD

For `C=CC(=O)Nc1ccc2c(c1)OC(c1cccc(C(F)(F)F)c1)O2` (centres unmarked) [Compound 146, N-(2-(3-(trifluoromethyl)phenyl)benzo[d][1,3]dioxol-5-yl)acrylamide], the IC50 in assay [1] was no more than 250 nM. This compound also had a GI50 in assay [2] of no more than 250 nM.
`C=CC(=O)Nc1ccc(OCC2CCC(F)(F)CC2)c2[nH]cnc12` [Compound 22, N-(7-((4,4-difluorocyclohexyl)methoxy)-1H-benzo[d]imidazol-4-yl)acrylamide]: the IC50 in assay [1] is 500 to 2000 nM. This compound also displayed a GI50 in assay [2] of 250 to 1000 nM.
The like results for `C=CC(=O)Nc1cc2nc(CCC(F)(F)F)oc2cc1F` [Compound 144, N-(6-fluoro-2-(3,3,3-trifluoropropyl)benzo[d]oxazol-5-yl)acrylamide] were, in that order, greater than 2000 nM and 250 to 1000 nM.
The like results for `C=CC(=O)Nc1cc2nc(Cc3ccc(F)cc3)oc2cc1F` [Compound 142, N-(6-fluoro-2-(4-fluorobenzyl)benzo[d]oxazol-5-yl)acrylamide] were, in that order, 500 to 2000 nM and 1000 to 3000 nM.
The like results for `C=CC(=O)Nc1ccc(OCC2CCC(F)(F)CC2)cc1C#N` [Compound 20, N-(2-cyano-4-((4,4-difluorocyclohexyl)methoxy)phenyl)acrylamide] were, in that order, no more than 250 nM and 250 to 1000 nM.
For `C=CC(=O)Nc1ccc(OC(C)c2cccc(C(F)(F)F)c2)c(F)c1` (centres unmarked) [Compound 105, N-(3-fluoro-4-(1-(3-(trifluoromethyl)phenyl)ethoxy)phenyl)acrylamide], the IC50 in assay [1] was no more than 250 nM. The compound further showed a GI50 in assay [2] of 250 to 1000 nM.
The like results for `C=CC(=O)Nc1cc2nc(CC(C)(C)C)oc2cc1F` [Compound 143, N-(6-fluoro-2-neopentylbenzo[d]oxazol-5-yl)acrylamide] were, in that order, 500 to 2000 nM and 250 to 1000 nM.
In turn, `C=CC(=O)Nc1cc2nc(CCCC(F)(F)F)oc2cc1F` [Compound 133, N-(6-fluoro-2-(4,4,4-trifluorobutyl)benzo[d]oxazol-5-yl)acrylamide] registered a GI50 in assay [2] of no more than 250 nM.
For the compound `C=CC(=O)Nc1ccc(OCCC(F)(F)F)c(F)c1` [Compound 103, N-(3-fluoro-4-(3,3,3-trifluoropropoxy)phenyl)acrylamide], in assay [1], the IC50 is greater than 2000 nM. Moreover, the GI50 in assay [2] fell in the range of 1000 to 3000 nM.
The like results for `C=CC(=O)Nc1ccc(OCc2cc(C(F)(F)F)ccn2)c(F)c1` [Compound 117, N-(3-fluoro-4-((4-(trifluoromethyl)pyridin-2-yl)methoxy)phenyl)acrylamide] were, in that order, 250 to 500 nM and 250 to 1000 nM.
The like results for `C=CC(=O)Nc1ccc(OCc2ccc(C#N)s2)c(F)c1` [Compound 63, N-(4-((5-cyanothiophen-2-yl)methoxy)-3-fluorophenyl)acrylamide] were, in that order, 500 to 2000 nM and 1000 to 3000 nM.
The like results for `C=CC(=O)Nc1ccc(NCC2CCC(F)(F)CC2)c(F)c1` [Compound 109, N-(4-(((4,4-difluorocyclohexyl)methyl)amino)-3-fluorophenyl)acrylamide] were, in that order, 250 to 500 nM and 250 to 1000 nM.
As for `C=CC(=O)Nc1ccc(OCc2cncc(C(F)(F)F)c2)c(C#N)c1` [Compound 41, N-(3-cyano-4-((5-(trifluoromethyl)pyridin-3-yl)methoxy)phenyl)acrylamide], the half-maximal inhibitory concentration (IC50) in assay [1] was greater than 2000 nM. In assay [2], this compound came in with a concentration for 50% growth inhibition (GI50) greater than 3000 nM.
The like results for `C=CC(=O)Nc1cc2nc(CC3CC3)oc2cc1F` [Compound 134, N-(2-(cyclopropylmethyl)-6-fluorobenzo[d]oxazol-5-yl)acrylamide] were, in that order, greater than 2000 nM and 1000 to 3000 nM.
The like results for `C=CC(=O)Nc1ccc(OCc2ccc(F)c(F)c2)c(C#N)c1` [Compound 40, N-(3-cyano-4-((3,4-difluorobenzyl)oxy)phenyl)acrylamide] were, in that order, 500 to 2000 nM and 1000 to 3000 nM.
Consider `C=CC(=O)Nc1ccc(OCc2cccc(F)c2)cc1F` [Compound 45, N-(2-fluoro-4-((3-fluorobenzyl)oxy)phenyl)acrylamide], for which, in assay [2], the GI50 was greater than 3000 nM.
For the compound `CS(=O)(=O)Nc1ccc(OCC2CCC(F)(F)CC2)c(F)c1` [Compound 33, N-(4-((4,4-difluorocyclohexyl)methoxy)-3-fluorophenyl)methane sulfonamide], the IC50 in assay [1] was 500 to 2000 nM.
The same measure, in the same setting: as for `C=CS(=O)(=O)Nc1ccc(OCC2CCC(F)(F)CC2)c(F)c1` [Compound 34, N-(4-((4,4-difluorocyclohexyl)methoxy)-3-fluorophenyl) ethene sulfonamide], the figure is no more than 250 nM; as for `C=CC(=O)Nc1ccc(OCc2cccc(F)c2)c(F)n1` [Compound 127, N-(6-fluoro-5-((3-fluorobenzyl)oxy)pyridin-2-yl)acrylamide], no more than 250 nM.
Same read-out and setting: as for `C=CC(=O)Nc1ccc(OCc2cccc(F)c2)cc1CC(N)=O` [Compound 11, N-(2-(2-amino-2-oxoethyl)-4-((3-fluorobenzyl)oxy)phenyl)acrylamide], the figure is greater than 2000 nM; as for `C=CC(=O)Nc1ccc(Oc2ccc(C3CCCCC3)cc2)c(F)c1` [Compound 102, N-(4-(4-cyclohexylphenoxy)-3-fluorophenyl)acrylamide], no more than 250 nM; as for `C=CC(=O)Nc1ccc(OCc2ccsc2Cl)c(F)c1` [Compound 61, N-(4-((2-chlorothiophen-3-yl)methoxy)-3-fluorophenyl)acrylamide], 500 to 2000 nM.
On the same count and under the same terms, as for `C=CC(=O)Nc1ccc(OCc2cccc(F)c2)c(OC)c1` [Compound 6, N-(4-((3-fluorobenzyl)oxy)-3-methoxyphenyl)acrylamide], the figure is 250 to 500 nM; as for `C=CC(=O)Nc1ccc(OCc2cc(Cl)ccc2Cl)c(F)c1` [Compound 79, N-(4-((2,5-dichlorobenzyl)oxy)-3-fluorophenyl)acrylamide], 500 to 2000 nM; as for `C=CC(=O)Nc1ccc(C(=O)Nc2cccc(F)c2)c(F)c1` [Compound 118, 4-acrylamido-2-fluoro-N-(3-fluorophenyl)benzamide], greater than 2000 nM.
For `C=CC(=O)Nc1ccc(OCc2oc(=O)oc2C)c(F)c1` [Compound 65, N-(3-fluoro-4-((5-methyl-2-oxo-1,3-dioxol-4-yl)methoxy)phenyl)acrylamide], in assay [1], the IC50 was greater than 2000 nM.
Same read-out and setting: as for `C=CC(=O)Nc1ccc2c(c1)NCC(c1cccc(F)c1)O2` (centres unmarked) [Compound 10, N-(2-(3-fluorophenyl)-3,4-dihydro-2H-benzo[b][1,4]oxazin-6-yl)acrylamide], the figure is greater than 2000 nM.
Same read-out and setting: as for `C=CC(=O)Nc1ccc(OCc2ccnc(C#N)c2)c(F)c1` [Compound 67, N-(4-((2-cyanopyridin-4-yl)methoxy)-3-fluorophenyl)acrylamide], the figure is greater than 2000 nM; as for `C=CC(=O)Nc1cc2nc(CCc3cccc(F)c3)oc2cc1F` [Compound 139, N-(6-fluoro-2-(3-fluorophenethyl)benzo[d]oxazol-5-yl)acrylamide], 250 to 500 nM; as for `Fc1cc(-c2nnn[nH]2)ccc1OCC1CCC(F)(F)CC1` [Compound 29, 5-(4-((4,4-difluorocyclohexyl)methoxy)-3-fluorophenyl)-1H-tetrazole], 500 to 2000 nM.
On to `C=CC(=O)Nc1ccc(OCc2cccnc2C)c(F)c1` [Compound 75, N-(3-fluoro-4-((2-methylpyridin-3-yl)methoxy)phenyl)acrylamide], for which the IC50 in assay [1] is greater than 2000 nM.
Same read-out and setting: as for `C=CC(=O)Nc1ccc(OCc2cccc(F)c2)cc1OC` [Compound 7, N-(4-((3-fluorobenzyl)oxy)-2-methoxyphenyl)acrylamide], the figure is no more than 250 nM.
For `C=CC(=O)Nc1cc(F)c(OCc2cccc(F)c2)cn1` [Compound 128, N-(4-fluoro-5-((3-fluorobenzyl)oxy)pyridin-2-yl)acrylamide], in assay [1], the half-inhibitory concentration (IC50) was no more than 250 nM.
